# Reference: PubChem BioAssay AID2060484 (Molecular Pharmacology Branch, DTP, NCI, 2025)
# Tested on: SUM149PT spheroids with HUVEC/MSC, viability
# Assay: Anticancer human tumor SUM149PT cell line growth inhibition [GQUAD];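 note: spheroids exposed to drugs for seven days before readout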;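 for viability, T/C: percent viability relative to DMSO vehicle control taken as 100%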
# Settings: for IC50: curve of first compound; for viability, T/C: stronger effect = lower value
# Summary of the method: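 Multi-cell-type spheroids of tumor cells with HUVEC and mesenchymal stem cells, treated with drug combinations. Concentrations descend in half-log steps from near clinical Cmax, or from 10 microM where Cmax is unknown; viability read-out.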
# [1] = second compound 0.0316 µM, first compound 0.0316 µM
# [2] = second compound 0.0316 µM, first compound 0.1 µM
# [3] = second compound 0.0316 µM, first compound 0.316 µM
# [4] = second compound 0.0316 µM, first compound 1 µM
# [5] = second compound 0.0316 µM, first compound 3.16 µM
# [6] = second compound 0.0316 µM, first compound 10 µM
# [7] = second compound 0.1 µM, first compound 0.0316 µM
# [8] = second compound 0.1 µM, first compound 0.1 µM
# [9] = second compound 0.1 µM, first compound 0.316 µM
# [10] = second compound 0.1 µM, first compound 1 µM
# [11] = second compound 0.1 µM, first compound 3.16 µM
# [12] = second compound 0.1 µM, first compound 10 µM
# [13] = second compound 0.316 µM, first compound 0.0316 µM
# [14] = second compound 0.316 µM, first compound 0.1 µM
# [15] = second compound 0.316 µM, first compound 0.316 µM
# [16] = second compound 0.316 µM, first compound 1 µM
# [17] = second compound 0.316 µM, first compound 3.16 µM
# [18] = second compound 0.316 µM, first compound 10 µM
# [19] = second compound 1 µM, first compound 0.0316 µM
# [20] = second compound 1 µM, first compound 0.1 µM
# [21] = second compound 1 µM, first compound 0.316 µM
# [22] = second compound 1 µM, first compound 1 µM
# [23] = second compound 1 µM, first compound 3.16 µM
# [24] = second compound 1 µM, first compound 10 µM
# [25] = second compound 3.16 µM, first compound 0.0316 µM
# [26] = second compound 3.16 µM, first compound 0.1 µM
# [27] = second compound 3.16 µM, first compound 0.316 µM
# [28] = second compound 3.16 µM, first compound 1 µM
# [29] = second compound 3.16 µM, first compound 3.16 µM
# [30] = second compound 3.16 µM, first compound 10 µM
# [31] = second compound 10 µM, first compound 0.0316 µM
# [32] = second compound 10 µM, first compound 0.1 µM
# [33] = second compound 10 µM, first compound 0.316 µM
# [34] = second compound 10 µM, first compound 1 µM
# [35] = second compound 10 µM, first compound 3.16 µM
# [36] = second compound 10 µM, first compound 10 µM
smiles,measurement,setting,value
CC(C)(O)C1CCC(Nc2ccc3ncc(-c4cccc(C(F)(F)F)c4)n3n2)CC1 (stereo not drawn) + Cc1[nH]c2ccc(F)cc2c1-c1nc2c3cccnc3c3ncccc3c2[nH]1,IC50,second compound 0.0316 µM,5.92 µM
same,IC50,second compound 0.1 µM,> 10 µM
same,IC50,second compound 0.316 µM,3.81 µM
same,IC50,second compound 1 µM,7.9 µM
same,IC50,second compound 3.16 µM,2.36 µM
same,IC50,second compound 10 µM,1.91 µM
same,"viability, T/C",[1],103%
same,"viability, T/C",[2],96.5%
same,"viability, T/C",[3],80.2%
same,"viability, T/C",[4],63.9%
same,"viability, T/C",[5],44.6%
same,"viability, T/C",[6],53.3%
same,"viability, T/C",[7],90.9%
same,"viability, T/C",[8],90.4%
same,"viability, T/C",[9],84.2%
same,"viability, T/C",[10],67.4%
same,"viability, T/C",[11],51%
same,"viability, T/C",[12],55.9%
same,"viability, T/C",[13],105%
same,"viability, T/C",[14],97.7%
same,"viability, T/C",[15],85.5%
same,"viability, T/C",[16],68.8%
same,"viability, T/C",[17],43.3%
same,"viability, T/C",[18],51%
same,"viability, T/C",[19],97.4%
same,"viability, T/C",[20],96.4%
same,"viability, T/C",[21],89.2%
same,"viability, T/C",[22],68%
same,"viability, T/C",[23],47.4%
same,"viability, T/C",[24],52.9%
same,"viability, T/C",[25],95.5%
same,"viability, T/C",[26],81.5%
same,"viability, T/C",[27],85.4%
same,"viability, T/C",[28],70%
same,"viability, T/C",[29],40%
same,"viability, T/C",[30],46.3%
same,"viability, T/C",[31],99%
same,"viability, T/C",[32],87.5%
same,"viability, T/C",[33],79.7%
same,"viability, T/C",[34],59.9%
same,"viability, T/C",[35],38.5%
same,"viability, T/C",[36],43.1%
CC(=O)O[C@H]1C(=O)[C@@]2(C)[C@H]([C@H](OC(=O)c3ccccc3)[C@]3(O)C[C@H](OC(=O)[C@H](O)[C@@H](NC(=O)c4ccccc4)c4ccccc4)C(C)=C1C3(C)C)[C@]1(OC(C)=O)CO[C@@H]1C[C@@H]2O + Cc1cnc(CNC(=O)c2c(=O)c3ccc(N4CCCN(C)CC4)nc3n3c2sc2ccccc23)cn1,IC50,second compound 0.0316 µM,< 0.0316 µM
same,IC50,second compound 0.1 µM,< 0.0316 µM
same,IC50,second compound 0.316 µM,< 0.0316 µM
same,IC50,second compound 1 µM,< 0.0316 µM
same,IC50,second compound 3.16 µM,< 0.0316 µM
same,IC50,second compound 10 µM,< 0.0316 µM
same,"viability, T/C",[1],25.8%
same,"viability, T/C",[2],16.3%
same,"viability, T/C",[3],15.5%
same,"viability, T/C",[4],9.27%
same,"viability, T/C",[5],11.8%
same,"viability, T/C",[6],16.7%
same,"viability, T/C",[7],26.2%
same,"viability, T/C",[8],26.1%
same,"viability, T/C",[9],13.4%
same,"viability, T/C",[10],13.1%
same,"viability, T/C",[11],14.7%
same,"viability, T/C",[12],14.5%
same,"viability, T/C",[13],30.5%
same,"viability, T/C",[14],30.4%
same,"viability, T/C",[15],19%
same,"viability, T/C",[16],14.6%
same,"viability, T/C",[17],14.8%
same,"viability, T/C",[18],19%
same,"viability, T/C",[19],30.9%
same,"viability, T/C",[20],24.8%
same,"viability, T/C",[21],18%
same,"viability, T/C",[22],16.1%
same,"viability, T/C",[23],15.2%
same,"viability, T/C",[24],20.7%
same,"viability, T/C",[25],32.2%
same,"viability, T/C",[26],24.8%
same,"viability, T/C",[27],19.1%
same,"viability, T/C",[28],16.9%
same,"viability, T/C",[29],18%
same,"viability, T/C",[30],19.8%
same,"viability, T/C",[31],0.13%
same,"viability, T/C",[32],0.61%
same,"viability, T/C",[33],1.35%
same,"viability, T/C",[34],0.64%
same,"viability, T/C",[35],1.28%
same,"viability, T/C",[36],1.03%
COc1ncnc(C2CC2)c1-c1ncc2cnn(Cc3ccc(-c4nc(C(F)(F)F)cn4C(C)C)cc3)c2n1 + CN(C)c1ccc(Nc2c3ccc(NC(=O)CCN4CCCC4)cc3nc3cc(NC(=O)CCN4CCCC4)ccc23)cc1,IC50,second compound 0.0316 µM,> 10 µM
same,IC50,second compound 0.1 µM,> 10 µM
same,IC50,second compound 0.316 µM,> 10 µM
same,IC50,second compound 1 µM,> 10 µM
same,IC50,second compound 3.16 µM,> 10 µM
same,IC50,second compound 10 µM,8.65 µM
same,"viability, T/C",[1],101%
same,"viability, T/C",[2],91.8%
same,"viability, T/C",[3],84.1%
same,"viability, T/C",[4],97.1%
same,"viability, T/C",[5],89.8%
same,"viability, T/C",[6],98.6%
same,"viability, T/C",[7],94.8%
same,"viability, T/C",[8],83.2%
same,"viability, T/C",[9],88.7%
same,"viability, T/C",[10],80.2%
same,"viability, T/C",[11],93.4%
same,"viability, T/C",[12],90.5%
same,"viability, T/C",[13],90.5%
same,"viability, T/C",[14],90.5%
same,"viability, T/C",[15],75.7%
same,"viability, T/C",[16],74.1%
same,"viability, T/C",[17],88%
same,"viability, T/C",[18],89.1%
same,"viability, T/C",[19],79%
same,"viability, T/C",[20],88.3%
same,"viability, T/C",[21],83.5%
same,"viability, T/C",[22],67.9%
same,"viability, T/C",[23],64.2%
same,"viability, T/C",[24],75.5%
same,"viability, T/C",[25],82.6%
same,"viability, T/C",[26],77.8%
same,"viability, T/C",[27],65.1%
same,"viability, T/C",[28],74.1%
same,"viability, T/C",[29],72.1%
same,"viability, T/C",[30],66.9%
same,"viability, T/C",[31],84.1%
same,"viability, T/C",[32],69%
same,"viability, T/C",[33],70.5%
same,"viability, T/C",[34],71.8%
same,"viability, T/C",[35],71.8%
same,"viability, T/C",[36],46.9%
CC(C)n1c(=O)n(C)c2cnc3cc(F)c(-c4ccc(OCCCN5CCCCC5)nc4)cc3c21 + Cc1cnc(CNC(=O)c2c(=O)c3ccc(N4CCCN(C)CC4)nc3n3c2sc2ccccc23)cn1,IC50,second compound 0.0316 µM,> 10 µM
same,IC50,second compound 0.1 µM,> 10 µM
same,IC50,second compound 0.316 µM,3.88 µM
same,IC50,second compound 1 µM,< 0.0316 µM
same,IC50,second compound 3.16 µM,< 0.0316 µM
same,IC50,second compound 10 µM,< 0.0316 µM
same,"viability, T/C",[1],56.4%
same,"viability, T/C",[2],51.5%
same,"viability, T/C",[3],55.8%
same,"viability, T/C",[4],59%
same,"viability, T/C",[5],59.9%
same,"viability, T/C",[6],48.9%
same,"viability, T/C",[7],55%
same,"viability, T/C",[8],55.5%
same,"viability, T/C",[9],52.6%
same,"viability, T/C",[10],60.2%
same,"viability, T/C",[11],64.7%
same,"viability, T/C",[12],46.2%
same,"viability, T/C",[13],52%
same,"viability, T/C",[14],57%
same,"viability, T/C",[15],52.2%
same,"viability, T/C",[16],50.9%
same,"viability, T/C",[17],54.1%
same,"viability, T/C",[18],35.5%
same,"viability, T/C",[19],39.6%
same,"viability, T/C",[20],44.3%
same,"viability, T/C",[21],48.4%
same,"viability, T/C",[22],46.4%
same,"viability, T/C",[23],48.8%
same,"viability, T/C",[24],32.9%
same,"viability, T/C",[25],37.7%
same,"viability, T/C",[26],41.1%
same,"viability, T/C",[27],42%
same,"viability, T/C",[28],43.5%
same,"viability, T/C",[29],39.9%
same,"viability, T/C",[30],31.5%
same,"viability, T/C",[31],0.24%
same,"viability, T/C",[32],8.78%
same,"viability, T/C",[33],32.2%
same,"viability, T/C",[34],23%
same,"viability, T/C",[35],1.78%
same,"viability, T/C",[36],1.16%
